Earlier results, collected in publication PMC6095934, “Impact of rifampicin-inhibitable transport on the liver distribution and tissue kinetics of erlotinib assessed with PET imaging in rats” (EJNMMI Research, 2018).

Experiments:
OAT3 [1] = system: OAT3
MRP2 (ABCC2) [2] = system: MRP2 (ABCC2); design: method as in PMID 23440558; details: canalicular side of hepatocytes
OCT2 [3] = system: OCT2; design: method as in PMID 21088257, PMID 26976869
OATP4C1 = system: OATP4C1; design: method as in PMID 28550055
[4] = system: organic cation transporter 1 (OCT1, SLC22A1)
[5] = system: organic anion transporter 2 (OAT2, SLC22A7); details: in vitro
OAT1 [6] = system: OAT1
human OATP2B1 [7] = system: human OATP2B1
OAT3 [8] = system: OAT3; design: method as in PMID 21088257
OAT2 = system: OAT2; design: method as in PMID 21088257
[9] = NSCLC patients, 150 mg erlotinib once daily
MRP2 (ABCC2) [10] = system: MRP2 (ABCC2); design: method as in PMID 18723475
human OATP2B1 [11] = details: in vitro, transfected cells
OCT2 [12] = system: OCT2; design: method as in PMID 21088257, PMID 26976869; remark: listed apart in the source
OAT1 [13] = system: OAT1; design: method as in PMID 21088257

| Compound | IC50 (human OATP1B3) [µM] | inhibition of OAT3 (OAT3 [1]) | inhibition of MRP2 (MRP2 (ABCC2) [2]) | Ki (rOATP1A1) [µM] | inhibition of OCT2 (OCT2 [3]) | inhibition of OATP4C1 (OATP4C1) | Ki [4] [µM] | inhibition of OAT2 [5] | IC50 (human OATP1B1) [µM] | inhibition of OAT1 (OAT1 [6]) | Ki (rOATP1B2) [µM] | IC50 (human OATP2B1 [7]) [µM] | substrate of OAT3 (OAT3 [8]) | transport by OAT2 (OAT2) | interpatient variability in area under the curve (AUC) [9] [%] | interpatient variability in trough plasma concentrations [9] [%] | substrate of MRP2 (MRP2 (ABCC2) [10]) | transport by human OATP2B1 (human OATP2B1 [11]) | substrate of OCT2 (OCT2 [12]) | transport by OAT1 (OAT1 [13]) |
| --- | --- | --- | --- | --- | --- | --- | --- | --- | --- | --- | --- | --- | --- | --- | --- | --- | --- | --- | --- | --- |
| CO[C@H]1/C=C/O[C@@]2(C)Oc3c(C)c(O)c4c(O)c(c(/C=N/N5CCN(C)CC5)c(O)c4c3C2=O)NC(=O)/C(C)=C\C=C\[C@H](C)[C@H](O)[C@@H](C)[C@@H](O)[C@@H](C)[C@H](OC(C)=O)[C@@H]1C [rifampicin, Rifampicin] | 6.4 ± 0.5 | not | potent inhibitor | 18 | not inhibited | not an inhibitor | > 100 | inhibited neither | 1.9 ± 0.16 | inhibitor | 0.79 | 91 ± 14.6 | – | – | – | – | – | – | – | – |
| C#Cc1cccc(Nc2ncnc3cc(OCCOC)c(OCCOC)cc23)c1 [erlotinib, Erlotinib] | – | – | – | – | – | – | – | – | – | – | – | – | substrate | neither transported | 51 | 64 | not a substrate | specifically transported | substrate | neither transported |
